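Interpolation was linear, between the two tested concentrations surrounding the appropriate level; five concentrations were tested over 48 hours in 96-well plates. The concentration for full growth arrest is given as TGI.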
Assays:
Experiment in all cases: NCI-60 cell line screen, 48 h
[1] = system: OVCAR-8 ovarian
[2] = system: OVCAR-4 ovarian
[3] = system: RXF 393 renal
[4] = system: HCT-15 colon
[5] = system: K-562 leukemia
[6] = system: OVCAR-5 ovarian
[7] = system: KM12 colon
[8] = system: RPMI-8226 leukemia
[9] = system: SNB-19 CNS
[10] = system: SR leukemia
[11] = system: HT29 colon
[12] = system: CAKI-1 renal
[13] = system: HCC-2998 colon
[14] = system: BT-549 breast
[15] = system: DU-145 prostate
[16] = system: MOLT-4 leukemia
[17] = system: IGROV1 ovarian
[18] = system: NCI-H460 lung
[19] = system: UACC-257 melanoma
[20] = system: ACHN renal
[21] = system: NCI/ADR-RES ovarian
[22] = system: PC-3 prostate
[23] = system: SN12C renal
[24] = system: SF-539 CNS
[25] = system: MCF7 breast
[26] = system: CCRF-CEM leukemia
[27] = system: MDA-N
[28] = system: SF-295 CNS
[29] = system: SW-620 colon
[30] = system: MDA-MB-435
[31] = system: SK-MEL-5 melanoma
[32] = system: OVCAR-3 ovarian
[33] = system: MDA-MB-231 breast
[34] = system: NCI-H226 lung
[35] = system: HOP-92 NSCLC
[36] = system: M14 melanoma
[37] = system: HCT-116 colon
[38] = system: UACC-62 melanoma
[39] = system: T-47D breast
[40] = system: U251 CNS
[41] = system: UO-31 renal
[42] = system: 786-0 renal
[43] = system: A498 renal
[44] = system: SK-OV-3 ovarian
[45] = system: SK-MEL-28 melanoma
[46] = system: SF-268 CNS
[47] = system: SNB-75 CNS
[48] = system: TK-10 renal
[49] = system: NCI-H522 lung
[50] = system: A549 NSCLC
[51] = system: MALME-3M melanoma
[52] = system: EKVX NSCLC
[53] = system: SK-MEL-2 melanoma
[54] = system: HS 578T breast
[55] = system: HL-60(TB) leukemia
[56] = system: NCI-H23 lung
[57] = system: LOX IMVI melanoma
[58] = system: COLO 205 colon
[59] = system: HOP-62 NSCLC

Measured: TGI

Cc1cc(C)c2c(c1)CC1(Cc3c(ccc(C)c3C)C1=O)C2=O (stereo unspecified)
not listed: [57] | [58] | [59]
> 100 µM: all other assays above

Cc1ccc(NC(=O)c2cc(S(=O)(=O)Nc3n[nH]c(=O)n3-c3ccccc3)c(S)cc2Cl)cc1
not listed: [20] | [26] | [28] | [59]
> 100 µM: all other assays above

Cc1n[nH]c(=O)n1/N=C/c1ccc([N+](=O)[O-])cc1
not listed: [9] | [17] | [36] | [44]
> 100 µM: all other assays above
